Measurements as given in ChEMBL document CHEMBL1140238, “Synthesis of selective SRPK-1 inhibitors: novel tricyclic quinoxaline derivatives” (Bioorg Med Chem Lett, 2005).

target: Mitogen-activated protein kinase 8 (Homo sapiens) (UniProt P45983); test: In vitro percent inhibition of c-Jun N-terminal kinase 1-alpha 1 at 10 uM concentration of compound dissolved in 100% DMSO using 5''-[gamma-33P]-triphosphate; conditions: not given
Sequence (P45983 whole entry): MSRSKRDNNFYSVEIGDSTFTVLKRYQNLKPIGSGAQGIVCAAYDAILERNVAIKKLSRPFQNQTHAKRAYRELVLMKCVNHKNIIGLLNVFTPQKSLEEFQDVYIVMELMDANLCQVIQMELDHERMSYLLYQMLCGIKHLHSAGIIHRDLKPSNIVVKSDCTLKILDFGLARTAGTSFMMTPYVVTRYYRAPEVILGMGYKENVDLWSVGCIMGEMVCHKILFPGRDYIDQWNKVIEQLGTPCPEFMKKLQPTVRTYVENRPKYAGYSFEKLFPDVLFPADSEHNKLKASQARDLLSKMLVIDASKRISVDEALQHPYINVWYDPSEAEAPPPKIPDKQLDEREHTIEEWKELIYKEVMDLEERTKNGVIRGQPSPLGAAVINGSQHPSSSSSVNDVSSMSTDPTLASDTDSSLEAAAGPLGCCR

`COC(=O)Cc1csc(-c2nc3cc4ccccc4cc3nc2-c2cc(CC(=O)OC)cs2)c1` and `COC(=O)CCc1ccc(-c2nc3cc4ccccc4cc3nc2-c2ccc(CCC(=O)OC)s2)s1` are the same in inhibition: -10% for the first, -10% for the second.

test system: not listed separately; test: In vitro percent inhibition of Cyclin-dependent kinase 2-cyclin A at 10 uM concentration of compound dissolved in 100% DMSO using 5''-[gamma-33P]-triphosphate; conditions: not given

Compared with `COC(=O)Cc1csc(-c2nc3cc4ccccc4cc3nc2-c2cc(CC(=O)OC)cs2)c1`, `COC(=O)CCc1ccc(-c2nc3cc4ccccc4cc3nc2-c2ccc(CCC(=O)OC)s2)s1` is higher in inhibition: -4% for the first, 12% for the second.

target: Ribosomal protein S6 kinase (P70S6K) (Homo sapiens) (UniProt Q9UBS0+P23443); test: In vitro percent inhibition of Ribosomal protein S6 kinase at 10 uM concentration of compound dissolved in 100% DMSO using 5''-[gamma-33P]-triphosphate; format: protein-complex assay; conditions: not given

First: COC(=O)Cc1csc(-c2nc3cc4ccccc4cc3nc2-c2cc(CC(=O)OC)cs2)c1
Second: COC(=O)CCc1ccc(-c2nc3cc4ccccc4cc3nc2-c2ccc(CCC(=O)OC)s2)s1
The inhibition of the first is lower: -5% for the first, 11% for the second.

target: Glycogen synthase kinase-3 beta (Homo sapiens) (UniProt P49841); test: In vitro percent inhibition of Glycogen synthase kinase 3 beta at 10 uM concentration of compound dissolved in 100% DMSO using 5''-[gamma-33P]-triphosphate; conditions: not given
Sequence (P49841 whole entry, looked up): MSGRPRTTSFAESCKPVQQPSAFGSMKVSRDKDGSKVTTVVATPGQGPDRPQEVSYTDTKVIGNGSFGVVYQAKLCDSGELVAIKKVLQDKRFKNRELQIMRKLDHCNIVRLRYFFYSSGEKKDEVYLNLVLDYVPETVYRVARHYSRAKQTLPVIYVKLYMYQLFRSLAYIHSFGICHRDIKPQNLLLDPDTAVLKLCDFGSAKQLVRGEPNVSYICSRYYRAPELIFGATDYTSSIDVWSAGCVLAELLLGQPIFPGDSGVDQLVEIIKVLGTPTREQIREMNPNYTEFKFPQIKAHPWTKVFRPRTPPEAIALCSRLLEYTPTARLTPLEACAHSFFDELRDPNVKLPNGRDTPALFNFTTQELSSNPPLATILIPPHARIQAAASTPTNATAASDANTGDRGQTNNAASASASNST

Going from `COC(=O)Cc1csc(-c2nc3cc4ccccc4cc3nc2-c2cc(CC(=O)OC)cs2)c1` to `COC(=O)CCc1ccc(-c2nc3cc4ccccc4cc3nc2-c2ccc(CCC(=O)OC)s2)s1`, the inhibition rises from 2% to 7%.

target: RAF proto-oncogene serine/threonine-protein kinase (Homo sapiens) (UniProt P04049); test: In vitro percent inhibition of RAF proto-oncogene serine/threonine-protein kinase at 10 uM concentration of compound dissolved in 100% DMSO using 5''-[gamma-33P]-triphosphate; conditions: not given
Sequence (P04049 whole entry): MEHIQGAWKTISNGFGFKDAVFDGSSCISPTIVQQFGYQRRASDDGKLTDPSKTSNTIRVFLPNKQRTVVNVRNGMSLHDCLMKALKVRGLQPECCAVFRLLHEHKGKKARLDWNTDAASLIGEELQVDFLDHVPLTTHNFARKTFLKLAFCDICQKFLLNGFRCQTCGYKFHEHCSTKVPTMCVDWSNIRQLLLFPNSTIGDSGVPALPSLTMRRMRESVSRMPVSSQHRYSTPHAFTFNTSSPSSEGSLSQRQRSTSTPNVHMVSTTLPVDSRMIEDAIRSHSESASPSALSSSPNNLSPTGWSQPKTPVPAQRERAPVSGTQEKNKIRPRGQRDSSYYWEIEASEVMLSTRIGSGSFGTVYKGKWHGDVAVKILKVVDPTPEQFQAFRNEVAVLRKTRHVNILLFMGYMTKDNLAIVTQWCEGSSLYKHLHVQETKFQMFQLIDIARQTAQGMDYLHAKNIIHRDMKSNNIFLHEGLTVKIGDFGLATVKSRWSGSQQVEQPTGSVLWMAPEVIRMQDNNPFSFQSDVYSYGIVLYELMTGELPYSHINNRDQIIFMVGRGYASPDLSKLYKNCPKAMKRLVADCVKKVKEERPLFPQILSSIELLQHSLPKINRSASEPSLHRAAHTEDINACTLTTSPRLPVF

Compared with `COC(=O)Cc1csc(-c2nc3cc4ccccc4cc3nc2-c2cc(CC(=O)OC)cs2)c1`, `COC(=O)CCc1ccc(-c2nc3cc4ccccc4cc3nc2-c2ccc(CCC(=O)OC)s2)s1` is higher in inhibition: 17% for the first, 18% for the second.

target: Platelet-derived growth factor receptor beta (Homo sapiens) (UniProt P09619); test: In vitro percent inhibition of Platelet-derived growth factor receptor, beta polypeptide at 10 uM concentration of compound dissolved in 100% DMSO using 5''-[gamma-33P]-triphosphate; conditions: not given

First: COC(=O)Cc1csc(-c2nc3cc4ccccc4cc3nc2-c2cc(CC(=O)OC)cs2)c1
Second: COC(=O)CCc1ccc(-c2nc3cc4ccccc4cc3nc2-c2ccc(CCC(=O)OC)s2)s1
The inhibition of the first is lower: 9% for the first, 13% for the second.

target: Mast/stem cell growth factor receptor Kit (Homo sapiens) (UniProt P10721); test: In vitro percent inhibition of v-kit Hardy-Zuckerman 4 feline sarcoma viral oncogene homolog at 10 uM concentration of compound dissolved in 100% DMSO using 5''-[gamma-33P]-triphosphate; conditions: not given

First: COC(=O)Cc1csc(-c2nc3cc4ccccc4cc3nc2-c2cc(CC(=O)OC)cs2)c1
Second: COC(=O)CCc1ccc(-c2nc3cc4ccccc4cc3nc2-c2ccc(CCC(=O)OC)s2)s1
The inhibition of the first is lower: 1% for the first, 12% for the second.

target: Hepatocyte growth factor receptor (Homo sapiens) (UniProt P08581); test: In vitro percent inhibition of Met proto-oncogene tyrosine kinase at 10 uM concentration of compound dissolved in 100% DMSO using 5''-[gamma-33P]-triphosphate; conditions: not given

Compared with `COC(=O)Cc1csc(-c2nc3cc4ccccc4cc3nc2-c2cc(CC(=O)OC)cs2)c1`, `COC(=O)CCc1ccc(-c2nc3cc4ccccc4cc3nc2-c2ccc(CCC(=O)OC)s2)s1` is higher in inhibition: -2% for the first, 39% for the second.

target: Mitogen-activated protein kinase 3 (Homo sapiens) (UniProt P27361); test: In vitro percent inhibition of Mitogen-activated protein kinase 3 at 10 uM concentration of compound dissolved in 100% DMSO using 5''-[gamma-33P]-triphosphate; conditions: not given
Sequence (P27361 whole entry): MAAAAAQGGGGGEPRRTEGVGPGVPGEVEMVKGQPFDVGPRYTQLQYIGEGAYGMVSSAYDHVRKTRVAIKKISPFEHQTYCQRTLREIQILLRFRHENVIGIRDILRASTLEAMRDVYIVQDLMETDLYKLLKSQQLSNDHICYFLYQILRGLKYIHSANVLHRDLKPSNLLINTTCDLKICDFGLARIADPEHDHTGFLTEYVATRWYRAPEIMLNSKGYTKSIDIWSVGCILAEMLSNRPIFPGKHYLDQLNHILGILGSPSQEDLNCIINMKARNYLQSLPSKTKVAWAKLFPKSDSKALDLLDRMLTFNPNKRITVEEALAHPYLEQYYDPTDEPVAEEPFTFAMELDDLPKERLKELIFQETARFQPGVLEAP

Going from `COC(=O)Cc1csc(-c2nc3cc4ccccc4cc3nc2-c2cc(CC(=O)OC)cs2)c1` to `COC(=O)CCc1ccc(-c2nc3cc4ccccc4cc3nc2-c2ccc(CCC(=O)OC)s2)s1`, the inhibition rises from 11% to 13%.

target: RAC-alpha serine/threonine-protein kinase (Homo sapiens) (UniProt P31749); test: In vitro percent inhibition of Protein kinase B, alpha at 10 uM concentration of compound dissolved in 100% DMSO using 5''-[gamma-33P]-triphosphate; conditions: not given

First: COC(=O)Cc1csc(-c2nc3cc4ccccc4cc3nc2-c2cc(CC(=O)OC)cs2)c1
Second: COC(=O)CCc1ccc(-c2nc3cc4ccccc4cc3nc2-c2ccc(CCC(=O)OC)s2)s1
The inhibition of the first is lower: 1% for the first, 14% for the second.

target: Tyrosine-protein kinase Lck (Homo sapiens) (UniProt P06239); test: In vitro percent inhibition of p56 Lck tyrosine kinase at 10 uM concentration of compound dissolved in 100% DMSO using 5''-[gamma-33P]-triphosphate; conditions: not given
Sequence (P06239 2-509 limits assumed): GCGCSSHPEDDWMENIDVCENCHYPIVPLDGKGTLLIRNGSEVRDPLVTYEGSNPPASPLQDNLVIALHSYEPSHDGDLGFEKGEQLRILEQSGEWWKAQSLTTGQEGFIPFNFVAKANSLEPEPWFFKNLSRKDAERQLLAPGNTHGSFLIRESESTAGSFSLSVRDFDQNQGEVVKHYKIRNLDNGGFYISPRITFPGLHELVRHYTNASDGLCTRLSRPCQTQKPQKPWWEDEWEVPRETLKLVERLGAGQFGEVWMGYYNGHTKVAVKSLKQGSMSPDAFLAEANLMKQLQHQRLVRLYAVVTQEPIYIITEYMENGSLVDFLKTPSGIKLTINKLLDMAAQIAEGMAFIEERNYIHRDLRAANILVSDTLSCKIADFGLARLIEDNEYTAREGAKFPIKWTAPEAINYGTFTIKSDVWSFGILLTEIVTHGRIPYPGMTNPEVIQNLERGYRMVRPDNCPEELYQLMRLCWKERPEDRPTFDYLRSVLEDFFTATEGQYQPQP

Compared with `COC(=O)Cc1csc(-c2nc3cc4ccccc4cc3nc2-c2cc(CC(=O)OC)cs2)c1`, `COC(=O)CCc1ccc(-c2nc3cc4ccccc4cc3nc2-c2ccc(CCC(=O)OC)s2)s1` is higher in inhibition: 4% for the first, 5% for the second.

target: Rho-associated protein kinase 2 (Homo sapiens) (UniProt O75116); test: In vitro percent inhibition of Protein kinase ROCK2 at 10 uM concentration of compound dissolved in 100% DMSO using 5''-[gamma-33P]-triphosphate; conditions: not given
Sequence (O75116 whole entry, looked up): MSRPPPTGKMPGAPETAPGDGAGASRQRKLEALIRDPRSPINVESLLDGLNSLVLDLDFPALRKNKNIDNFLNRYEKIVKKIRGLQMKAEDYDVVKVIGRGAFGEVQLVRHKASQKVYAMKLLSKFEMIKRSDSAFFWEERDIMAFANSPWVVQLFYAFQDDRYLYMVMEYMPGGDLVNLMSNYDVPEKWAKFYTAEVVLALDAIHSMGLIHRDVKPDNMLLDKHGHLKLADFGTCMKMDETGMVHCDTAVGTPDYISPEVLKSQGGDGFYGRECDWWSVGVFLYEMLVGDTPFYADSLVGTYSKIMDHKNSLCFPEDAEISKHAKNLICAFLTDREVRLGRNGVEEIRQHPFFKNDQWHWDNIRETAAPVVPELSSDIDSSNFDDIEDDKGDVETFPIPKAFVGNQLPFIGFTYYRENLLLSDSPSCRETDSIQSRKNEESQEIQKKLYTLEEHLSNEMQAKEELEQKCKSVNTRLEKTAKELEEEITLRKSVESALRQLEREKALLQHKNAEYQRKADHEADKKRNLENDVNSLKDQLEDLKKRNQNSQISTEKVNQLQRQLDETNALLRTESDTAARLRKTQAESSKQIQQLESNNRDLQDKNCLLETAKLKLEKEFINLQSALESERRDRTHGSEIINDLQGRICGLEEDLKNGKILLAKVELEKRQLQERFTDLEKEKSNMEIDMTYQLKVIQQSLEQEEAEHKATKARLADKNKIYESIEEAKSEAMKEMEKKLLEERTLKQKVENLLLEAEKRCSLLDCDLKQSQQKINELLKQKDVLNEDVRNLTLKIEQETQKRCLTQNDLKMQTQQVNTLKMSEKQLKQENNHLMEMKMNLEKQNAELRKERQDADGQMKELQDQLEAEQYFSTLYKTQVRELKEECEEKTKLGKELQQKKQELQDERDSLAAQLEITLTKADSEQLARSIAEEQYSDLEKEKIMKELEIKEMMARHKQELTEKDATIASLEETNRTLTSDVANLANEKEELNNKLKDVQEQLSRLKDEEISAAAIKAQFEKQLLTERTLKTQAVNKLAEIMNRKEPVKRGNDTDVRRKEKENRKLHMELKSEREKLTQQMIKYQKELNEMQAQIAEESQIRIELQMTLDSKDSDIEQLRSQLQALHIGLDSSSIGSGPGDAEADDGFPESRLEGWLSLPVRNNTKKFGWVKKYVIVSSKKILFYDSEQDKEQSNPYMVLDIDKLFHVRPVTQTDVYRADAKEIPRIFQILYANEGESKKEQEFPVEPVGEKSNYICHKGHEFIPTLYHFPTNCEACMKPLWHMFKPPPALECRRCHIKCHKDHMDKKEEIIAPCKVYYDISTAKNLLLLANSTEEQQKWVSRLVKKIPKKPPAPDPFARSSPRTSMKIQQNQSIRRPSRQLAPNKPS

Compared with `COC(=O)Cc1csc(-c2nc3cc4ccccc4cc3nc2-c2cc(CC(=O)OC)cs2)c1`, `COC(=O)CCc1ccc(-c2nc3cc4ccccc4cc3nc2-c2ccc(CCC(=O)OC)s2)s1` is higher in inhibition: 4% for the first, 5% for the second.

target: Casein kinase I isoform alpha (Homo sapiens) (UniProt P48729); test: In vitro percent inhibition of Casein kinase 1 alpha at 10 uM concentration of compound dissolved in 100% DMSO using 5''-[gamma-33P]-triphosphate; conditions: not given

Compared with `COC(=O)Cc1csc(-c2nc3cc4ccccc4cc3nc2-c2cc(CC(=O)OC)cs2)c1`, `COC(=O)CCc1ccc(-c2nc3cc4ccccc4cc3nc2-c2ccc(CCC(=O)OC)s2)s1` is higher in inhibition: 3% for the first, 14% for the second.

target: T1, Inhibitor of nuclear factor kappa-B kinase subunit beta (Homo sapiens) (UniProt O14920); test: In vitro percent inhibition of I-kappa-B-kinase beta at 10 uM concentration of compound dissolved in 100% DMSO using 5''-[gamma-33P]-triphosphate; conditions: not given
T1 sequence (whole entry): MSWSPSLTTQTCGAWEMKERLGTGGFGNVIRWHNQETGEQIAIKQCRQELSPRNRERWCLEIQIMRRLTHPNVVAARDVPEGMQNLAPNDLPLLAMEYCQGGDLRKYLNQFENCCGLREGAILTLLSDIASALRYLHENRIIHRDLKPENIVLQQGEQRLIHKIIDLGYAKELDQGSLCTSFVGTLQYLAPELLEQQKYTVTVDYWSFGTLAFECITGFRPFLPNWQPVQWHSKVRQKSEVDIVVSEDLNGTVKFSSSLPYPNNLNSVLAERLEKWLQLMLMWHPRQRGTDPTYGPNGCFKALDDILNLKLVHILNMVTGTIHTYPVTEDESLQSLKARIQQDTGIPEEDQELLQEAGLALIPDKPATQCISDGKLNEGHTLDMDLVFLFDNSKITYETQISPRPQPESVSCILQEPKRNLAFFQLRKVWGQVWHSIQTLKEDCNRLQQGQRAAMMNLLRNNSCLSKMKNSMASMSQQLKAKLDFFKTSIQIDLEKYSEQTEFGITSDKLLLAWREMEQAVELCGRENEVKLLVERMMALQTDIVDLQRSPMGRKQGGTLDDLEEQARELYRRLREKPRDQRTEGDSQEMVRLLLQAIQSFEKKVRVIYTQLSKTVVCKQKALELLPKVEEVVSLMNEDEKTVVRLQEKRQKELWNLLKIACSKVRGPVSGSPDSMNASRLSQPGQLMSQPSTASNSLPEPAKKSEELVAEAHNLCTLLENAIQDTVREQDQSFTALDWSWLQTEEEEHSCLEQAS

Going from `COC(=O)Cc1csc(-c2nc3cc4ccccc4cc3nc2-c2cc(CC(=O)OC)cs2)c1` to `COC(=O)CCc1ccc(-c2nc3cc4ccccc4cc3nc2-c2ccc(CCC(=O)OC)s2)s1`, the inhibition rises from 14% to 31%.

test system: not listed separately; test: In vitro percent inhibition of Ribosomal S6 kinase 1 at 10 uM concentration of compound dissolved in 100% DMSO using 5''-[gamma-33P]-triphosphate; conditions: not given

Compared with `COC(=O)Cc1csc(-c2nc3cc4ccccc4cc3nc2-c2cc(CC(=O)OC)cs2)c1`, `COC(=O)CCc1ccc(-c2nc3cc4ccccc4cc3nc2-c2ccc(CCC(=O)OC)s2)s1` is higher in inhibition: 13% for the first, 31% for the second.

target: Proto-oncogene tyrosine-protein kinase Src (Homo sapiens) (UniProt P12931); test: In vitro percent inhibition of c-Src tyrosine kinase at 10 uM concentration of compound dissolved in 100% DMSO using 5''-[gamma-33P]-triphosphate; conditions: not given

Going from `COC(=O)Cc1csc(-c2nc3cc4ccccc4cc3nc2-c2cc(CC(=O)OC)cs2)c1` to `COC(=O)CCc1ccc(-c2nc3cc4ccccc4cc3nc2-c2ccc(CCC(=O)OC)s2)s1`, the inhibition rises from 8% to 19%.

target: T2, Tyrosine-protein kinase transforming protein Abl (Abelson murine leukemia virus) (UniProt P00521); test: In vitro percent inhibition of v-Abl tyrosine kinase at 10 uM concentration of compound dissolved in 100% DMSO using 5''-[gamma-33P]-triphosphate; conditions: not given
T2 sequence (whole entry): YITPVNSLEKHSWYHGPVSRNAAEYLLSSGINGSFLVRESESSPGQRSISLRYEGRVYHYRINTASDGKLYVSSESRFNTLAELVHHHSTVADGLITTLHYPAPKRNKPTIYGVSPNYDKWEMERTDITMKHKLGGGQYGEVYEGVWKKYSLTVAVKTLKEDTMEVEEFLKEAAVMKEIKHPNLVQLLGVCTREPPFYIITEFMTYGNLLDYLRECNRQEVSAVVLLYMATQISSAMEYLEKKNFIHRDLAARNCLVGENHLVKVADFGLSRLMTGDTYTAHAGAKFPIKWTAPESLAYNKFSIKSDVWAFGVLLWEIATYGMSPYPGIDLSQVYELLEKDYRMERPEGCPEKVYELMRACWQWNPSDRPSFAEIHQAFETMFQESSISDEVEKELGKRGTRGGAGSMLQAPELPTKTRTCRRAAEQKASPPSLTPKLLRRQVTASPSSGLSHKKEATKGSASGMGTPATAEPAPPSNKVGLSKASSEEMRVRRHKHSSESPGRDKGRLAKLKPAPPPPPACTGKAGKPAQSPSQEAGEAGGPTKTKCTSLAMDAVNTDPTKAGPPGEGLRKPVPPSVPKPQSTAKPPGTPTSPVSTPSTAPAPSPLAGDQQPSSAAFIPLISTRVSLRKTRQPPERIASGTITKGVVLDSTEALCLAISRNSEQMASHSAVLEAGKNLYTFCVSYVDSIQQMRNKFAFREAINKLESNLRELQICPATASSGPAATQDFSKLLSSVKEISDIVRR

First: COC(=O)Cc1csc(-c2nc3cc4ccccc4cc3nc2-c2cc(CC(=O)OC)cs2)c1
Second: COC(=O)CCc1ccc(-c2nc3cc4ccccc4cc3nc2-c2ccc(CCC(=O)OC)s2)s1
The inhibition of the first is lower: -10% for the first, -8% for the second.

test system: not listed separately; test: Partition coefficient (logP); format: physicochemical; conditions: octanol/water

`COC(=O)Cc1csc(-c2nc3cc4ccccc4cc3nc2-c2cc(CC(=O)OC)cs2)c1` and `COC(=O)CCc1ccc(-c2nc3cc4ccccc4cc3nc2-c2ccc(CCC(=O)OC)s2)s1` are the same in logP: 5 for the first, 5 for the second.

target: Epidermal growth factor receptor (Homo sapiens) (UniProt P00533); conditions: 10 uM
Sequence (P00533 whole entry): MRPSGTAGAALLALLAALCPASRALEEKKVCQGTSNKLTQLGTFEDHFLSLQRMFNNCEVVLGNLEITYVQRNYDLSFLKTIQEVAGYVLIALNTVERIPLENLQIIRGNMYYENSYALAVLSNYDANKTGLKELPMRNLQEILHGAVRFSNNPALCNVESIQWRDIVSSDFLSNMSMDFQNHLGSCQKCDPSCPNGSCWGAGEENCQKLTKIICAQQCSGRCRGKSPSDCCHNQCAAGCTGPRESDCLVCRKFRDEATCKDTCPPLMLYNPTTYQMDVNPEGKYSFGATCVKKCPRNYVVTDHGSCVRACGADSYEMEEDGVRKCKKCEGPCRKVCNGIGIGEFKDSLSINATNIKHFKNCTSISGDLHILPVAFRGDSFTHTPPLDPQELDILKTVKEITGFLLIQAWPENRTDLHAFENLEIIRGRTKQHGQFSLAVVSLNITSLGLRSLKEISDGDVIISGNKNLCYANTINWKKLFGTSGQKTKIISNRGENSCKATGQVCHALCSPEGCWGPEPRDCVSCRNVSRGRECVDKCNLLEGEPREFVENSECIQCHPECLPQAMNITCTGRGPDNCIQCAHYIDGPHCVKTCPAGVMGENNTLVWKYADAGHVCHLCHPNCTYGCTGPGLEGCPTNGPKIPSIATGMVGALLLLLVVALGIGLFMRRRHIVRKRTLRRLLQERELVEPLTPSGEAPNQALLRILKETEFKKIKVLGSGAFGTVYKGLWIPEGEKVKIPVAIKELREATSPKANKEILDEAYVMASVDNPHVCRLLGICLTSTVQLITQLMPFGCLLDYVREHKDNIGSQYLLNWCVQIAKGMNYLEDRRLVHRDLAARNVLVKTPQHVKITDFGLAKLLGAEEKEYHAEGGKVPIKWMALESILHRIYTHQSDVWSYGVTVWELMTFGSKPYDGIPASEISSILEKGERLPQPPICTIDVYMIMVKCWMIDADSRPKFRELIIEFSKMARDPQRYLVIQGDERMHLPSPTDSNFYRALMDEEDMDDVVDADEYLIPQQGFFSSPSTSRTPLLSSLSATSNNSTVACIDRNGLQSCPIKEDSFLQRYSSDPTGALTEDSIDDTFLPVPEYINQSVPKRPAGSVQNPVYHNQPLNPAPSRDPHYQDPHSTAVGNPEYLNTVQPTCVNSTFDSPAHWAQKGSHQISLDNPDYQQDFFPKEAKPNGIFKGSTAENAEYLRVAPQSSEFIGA

Going from `COC(=O)Cc1csc(-c2nc3cc4ccccc4cc3nc2-c2cc(CC(=O)OC)cs2)c1` to `COC(=O)CCc1ccc(-c2nc3cc4ccccc4cc3nc2-c2ccc(CCC(=O)OC)s2)s1`, the inhibition rises from 11% to 32%.
